According to US20090306053A1, “Highly selective rho-kinase inhibitor” (priority 2005, published 2009):
Counter-ions that a name gives are not always drawn.

How the values were obtained:
Format in all cases: biochemical
[1] = target: T1, Recombinant human AuroraA (Homo sapiens, UniProt O14965); experiment: AuroraA kinase assay (Kinase-Glo ATP consumption); set-up: key to Realative Inhibitory Activity AuroraA: ratio relative to ROCKII-inhibiting activity defined as 1.0 (from IC50s); conditions: relative ratio to ROCKII (=1.0), based on IC50 values
T1 construct: purchased Upstate
T1 sequence (O14965 1-403): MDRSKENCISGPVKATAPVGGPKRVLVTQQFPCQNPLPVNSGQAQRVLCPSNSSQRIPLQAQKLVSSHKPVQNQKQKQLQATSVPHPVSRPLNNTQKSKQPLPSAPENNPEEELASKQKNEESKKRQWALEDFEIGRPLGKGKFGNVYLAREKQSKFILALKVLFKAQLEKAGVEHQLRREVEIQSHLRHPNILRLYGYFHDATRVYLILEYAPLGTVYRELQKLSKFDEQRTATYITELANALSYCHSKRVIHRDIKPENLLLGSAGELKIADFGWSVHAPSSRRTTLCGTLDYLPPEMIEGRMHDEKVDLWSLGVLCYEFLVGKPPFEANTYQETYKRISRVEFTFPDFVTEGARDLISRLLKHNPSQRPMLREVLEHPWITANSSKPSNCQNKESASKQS
Procedure: Recombinant human AuroraA (Upstate) was used to evaluate its activity to phosphorylate a substrate peptide (LRRASLG, Promega) was evaluated.
(§1) In a system of the total volume of 50 μL, the reaction of the above-mentioned enzyme (40 ng) was carried out at room temperature for 80 minutes in the presence of 40 mM of MOPS-NaOH (pH 7.5), 20 mM of magnesium chloride, 200 μM of the above peptide, and 1 μM of ATP. After the kinase reaction, the luminescence intensity corresponding to the amount of ATP in the reaction system was measured using a luciferase reagent (Kinase-Glo Luminescent Kinase Assay kit, Promega) with a chemiluminescence measurement apparatus (MicroLumat, Berthold Technologies). The amount of ATP consumed by the phosphorylation reaction was calculated by comparison with the luminescence intensity in the system when the kinase reaction was not carried out.
(§2) With this system, the kinase reaction was carried out in the presence of a compound at various concentrations, and the IC50 value of the compound was determined based on the resulting compound concentration-response curve for ATP consumption.
(§3) The ROCKII-inhibiting activity of a compound to be tested was defined as 1.0, and the inhibitory activities of the compound against kinases (PKA, PKG, CaMKII, and AuroraA) other than ROCKII were calculated as relative ratios to the ROCKII-inhibiting activity, based on the IC50 values calculated using the above-described evaluation system.

[2] = target: T2, Purified bovine PKA (catalyst subunit) (Bos taurus, UniProt P00517); experiment: PKA kinase assay (Kinase-Glo ATP consumption); conditions: relative ratio to ROCKII (=1.0), based on IC50 values
T2 construct: Purified bovine PKA (catalyst subunit, Promega); purchased Promega
Procedure: Purified bovine PKA (catalyst subunit, Promega) was used to evaluate its activity to phosphorylate a substrate peptide (LRRASLG, Promega).
as §1, with “(43” for “(40”, “20” for “80”, “Tris-HCl” for “MOPS-NaOH”, “1 mg/mL of BSA, 5” for “200”
as §2, §3

ROCKII (Rho-kinase) = ROCKII (Rho-kinase) (Homo sapiens, UniProt O75116); experiment: Rho-kinase (ROCKII) assay according to Patent Document 1; set-up: key to Realative Inhibitory Activity ROCKII: relative ratio; ROCKII-inhibiting activity defined as 1.0; conditions: ROCKII-inhibiting activity defined as 1.0 (reference)
Procedure: An Rho-kinase assay was carried out according to the method described in Patent Document 1, and the concentration of a compound for inhibiting Rho-kinase activity by 50% (hereinafter referred to as “IC50 value”) was calculated.
as §3

Purified rat CaMKII = experiment: CaMKII kinase assay (Kinase-Glo ATP consumption); conditions: relative ratio to ROCKII (=1.0), based on IC50 values
Procedure: Purified rat CaMKII (containing CaMKIIα and small amounts of β, γ, and δ isoforms, Upstate) was used to evaluate its activity to phosphorylate a substrate peptide (KKALRRQETVDAL, Upstate).
as §1, with “(33” for “(40”, “60” for “80”, “50” for “40”, “Tris-HCl (pH7.5), 10” for “MOPS-NaOH (pH 7.5), 20”, “2 mM of calcium chloride, 0.04 mg/mL of BSA, 16 μg/mL of purified bovine brain calmodulin (Sigma), 0.5 mM of DTT, 50 µM” for “200 μM”
as §2, §3

Purified bovine PKGα = target: T3, Purified bovine PKGα (Bos taurus, UniProt P00516); experiment: PKG kinase assay (Kinase-Glo ATP consumption); conditions: relative ratio to ROCKII (=1.0), based on IC50 values
T3 construct: Purified bovine PKGα (Promega); purchased Promega
T3 sequence (P00516 1-671): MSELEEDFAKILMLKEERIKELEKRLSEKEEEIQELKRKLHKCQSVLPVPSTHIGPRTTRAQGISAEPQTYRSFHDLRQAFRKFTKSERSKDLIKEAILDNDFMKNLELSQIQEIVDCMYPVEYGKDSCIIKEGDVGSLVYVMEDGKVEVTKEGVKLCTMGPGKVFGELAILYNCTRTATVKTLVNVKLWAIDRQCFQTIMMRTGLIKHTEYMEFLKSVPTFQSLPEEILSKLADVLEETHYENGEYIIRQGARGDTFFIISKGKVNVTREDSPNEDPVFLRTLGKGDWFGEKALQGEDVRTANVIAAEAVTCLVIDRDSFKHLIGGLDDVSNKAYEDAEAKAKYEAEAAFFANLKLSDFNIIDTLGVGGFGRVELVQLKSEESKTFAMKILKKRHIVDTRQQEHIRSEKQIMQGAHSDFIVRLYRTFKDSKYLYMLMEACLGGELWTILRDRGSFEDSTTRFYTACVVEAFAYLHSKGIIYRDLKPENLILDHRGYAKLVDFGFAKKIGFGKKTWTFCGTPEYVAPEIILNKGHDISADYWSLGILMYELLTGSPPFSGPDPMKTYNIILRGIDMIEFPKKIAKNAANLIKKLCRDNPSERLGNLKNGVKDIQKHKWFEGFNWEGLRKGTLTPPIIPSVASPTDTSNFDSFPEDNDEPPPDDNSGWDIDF
Procedure: Purified bovine PKGα (Promega) was used to evaluate its activity to phosphorylate a substrate peptide (RKISASEF, Promega).
as §1, with “(64” for “(40”, “Tris-HCl” for “MOPS-NaOH”, “10 μM of cGMP (Sigma), 100” for “200”
as §2, §3

Chain of ROCKII (Rho-kinase) (O75116 whole entry, species assumed): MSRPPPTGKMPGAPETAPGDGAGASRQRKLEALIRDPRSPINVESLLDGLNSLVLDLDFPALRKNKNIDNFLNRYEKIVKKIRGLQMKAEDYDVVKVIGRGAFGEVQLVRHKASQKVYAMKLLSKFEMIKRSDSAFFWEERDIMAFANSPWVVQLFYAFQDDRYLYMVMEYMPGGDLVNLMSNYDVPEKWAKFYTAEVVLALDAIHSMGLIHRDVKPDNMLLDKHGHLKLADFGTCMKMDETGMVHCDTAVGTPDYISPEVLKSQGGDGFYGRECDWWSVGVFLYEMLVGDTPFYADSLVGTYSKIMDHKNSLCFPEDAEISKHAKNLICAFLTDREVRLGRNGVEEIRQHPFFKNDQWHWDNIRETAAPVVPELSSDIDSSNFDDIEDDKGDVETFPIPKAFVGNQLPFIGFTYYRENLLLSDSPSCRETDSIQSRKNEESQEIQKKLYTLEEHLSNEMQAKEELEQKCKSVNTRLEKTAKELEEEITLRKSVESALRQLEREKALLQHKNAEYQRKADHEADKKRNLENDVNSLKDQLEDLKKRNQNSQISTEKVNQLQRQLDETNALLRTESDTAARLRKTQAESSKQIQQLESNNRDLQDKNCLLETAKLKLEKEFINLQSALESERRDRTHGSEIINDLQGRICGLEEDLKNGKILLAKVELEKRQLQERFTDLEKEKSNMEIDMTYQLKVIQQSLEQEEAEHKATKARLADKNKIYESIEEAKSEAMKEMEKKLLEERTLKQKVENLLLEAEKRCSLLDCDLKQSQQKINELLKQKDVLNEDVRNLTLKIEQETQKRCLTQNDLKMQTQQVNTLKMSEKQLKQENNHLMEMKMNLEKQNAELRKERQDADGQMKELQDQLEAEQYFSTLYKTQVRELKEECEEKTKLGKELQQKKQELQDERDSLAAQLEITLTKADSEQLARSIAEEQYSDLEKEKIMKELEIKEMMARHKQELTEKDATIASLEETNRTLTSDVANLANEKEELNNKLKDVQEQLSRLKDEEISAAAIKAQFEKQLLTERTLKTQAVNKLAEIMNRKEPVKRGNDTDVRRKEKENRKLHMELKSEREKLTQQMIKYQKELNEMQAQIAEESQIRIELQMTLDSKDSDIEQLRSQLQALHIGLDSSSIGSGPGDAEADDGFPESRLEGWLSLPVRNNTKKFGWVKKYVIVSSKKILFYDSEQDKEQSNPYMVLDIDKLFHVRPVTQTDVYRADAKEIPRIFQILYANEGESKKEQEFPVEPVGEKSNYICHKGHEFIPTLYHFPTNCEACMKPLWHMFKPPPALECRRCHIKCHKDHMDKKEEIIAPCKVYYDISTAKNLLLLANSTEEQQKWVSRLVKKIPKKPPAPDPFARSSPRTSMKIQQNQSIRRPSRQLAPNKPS

Compound	Realative Inhibitory Activity AuroraA [1]	Realative Inhibitory Activity PKA [2]	Realative Inhibitory Activity ROCKII (ROCKII (Rho-kinase))	Realative Inhibitory Activity CaMKII (Purified rat CaMKII)	Realative Inhibitory Activity PKG (Purified bovine PKGα)
2-(S)-4-(D-alanyl)-1-(4-fluoroisoquinoline-5-sulfonyl)-2-methylhomopiperazine dihydrochloride [Example 4]	>300	>300	1	300	93
C[C@H](N)C(=O)N1CCCN(S(O)(O)c2cccc3cncc(F)c23)[C@@H](C)C1 [Example 3, 2-(S)-4-(L-alanyl)-1-(4-fluoroisoquinoline-5-sulfonyl)-2-methylhomopiperazine dihydrochloride]	145	>300	1	135	11
CC(C)[C@@H](N)C(=O)N1CCCN(S(O)(O)c2cccc3cncc(F)c23)[C@@H](C)C1 [Example 6, 2-(S)-1-(4-fluoroisoquinoline-5-sulfonyl)-2-methyl-4-(D-valyl)homopiperazine dihydrochloride]	>300	>300	1	>300	30
CC[C@H](N)C(=O)N1CCCN(S(O)(O)c2cccc3cncc(F)c23)[C@@H](C)C1 [Example 11, 2-(S)-4-(L-α-aminobutylyl)-1-(4-fluoroisoquinoline-5-sulfonyl)-2-methylhomopiperazine dihydrochloride]	210	>300	1	364	79
CC[C@@H](N)C(=O)N1CCCN(S(O)(O)c2cccc3cncc(F)c23)[C@@H](C)C1 [Example 12, 2-(S)-4-(D-α-aminobutylyl)-1-(4-fluoroisoquinoline-5-sulfonyl)-2-methylhomopiperazine dihydrochloride]	244	>300	1	>300	92
